Measured values: paper PMC12635197, “Discovery of first-in-class inhibitors of the TRF1:TIN2 protein:protein interaction by fragment screening” (Scientific Reports, 2025)

Tests used:
[1] = Fragment solubility assay (quantitative 1H NMR); type: physicochemical; settings: NMR buffer, overnight incubation, 1H NMR quantified against 1 mM caffeine standard
Description: Aqueous solubility test samples were prepared by adding 3.6 µL compound (50 mM stock in 100% DMSO-d6) to 176.4 µL NMR buffer in a microcentrifuge tube. The samples were incubated overnight and transferred to a 3-mm NMR tube (Bruker, Part No. Z112272). ^1H NMR spectra were recorded, with the DMSO and water signals dampened. 1 mM caffeine (Sigma, C1778 in PBS (pH 7.4) with 1% DMSO-d6) was used as a standard to quantify the ligand signals and determine the concentration of samples.
NMR data were collected on a Bruker Avance Neo 600-MHz spectrometer equipped with a 5 mm TCI-CryoProbe. The ^1H spectrum was referenced to the internal deuterated solvent. The operating frequency for ^1H was 600 MHz. All NMR data were acquired at the temperature of 298 K. All data were acquired and processed using Bruker Topspin 4.0. The quantitative ^1H-NMR spectrum was acquired using a Bruker standard 1D lc1pngppsf2 pulse sequence with 32 scans. The sweep width was 6.2 ppm with O1P set to 8.8 ppm, and the FID contained 16k time-domain data points. Relaxation delay was set to 20 s. Water signal was suppressed.

TRF1TRFH [2] = target: T1, TRF1TRFH (Homo sapiens, UniProt P54274); assay: LO-NMR CPMG assay (relaxation-edited), singletons; type: binding; settings: single experiment; for CPMG reduction: average peak intensity reduction on addition of TRF1TRFH, 250 µM ligand, 20 µM protein; for CPMG recovery: net recovery of peak intensity on addition of TIN2TBM peptide (40 µM) to compound plus protein
T1 construct: encoding residues 47–268, UniProt identifier P54274-1; His6-MBP (TEV-cleavable) (N, cleaved yes); made in house; host or cells: E. coli BL21-CodonPlus(DE3)-RIL
T1 sequence (P54274 47-268): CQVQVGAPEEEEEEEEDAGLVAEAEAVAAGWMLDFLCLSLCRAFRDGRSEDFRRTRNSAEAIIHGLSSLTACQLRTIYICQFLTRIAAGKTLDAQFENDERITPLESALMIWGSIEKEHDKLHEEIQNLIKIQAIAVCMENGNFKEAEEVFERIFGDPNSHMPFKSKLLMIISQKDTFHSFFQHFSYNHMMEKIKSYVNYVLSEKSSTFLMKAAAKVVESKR
Description: We next used a LO-NMR CPMG assay to orthogonally validate XChem hits in solution, aiming to eliminate false positives and rank hit matter for follow-up studies. Compounds were tested as singletons and prepared in two samples containing either compound alone (sample 1) or compound + TRF1TRFH (sample 2).
The fragment screen by LO-NMR was carried out using conditions described previously, with some modifications. Fragments were dispensed in triplicate into a 384-well plate using an Echo 550 liquid handler to give a final ligand concentration of 250 µM (total sample volume of 40 µL). 40 µL of TRF1TRFH protein (in NMR buffer; 20 µM final protein concentration in the assay) were added to the ‘protein’ samples; 40 µL of TRF1TRFH protein and TIN2TBM peptide (21-mer, Ac-[…]-CONH2; 40 µM final concentration in the assay) were both added to the ‘competitor’ samples; 40 µL NMR buffer were added to the ‘compound-only’ samples. Solutions were transferred to 1.7-mm NMR tubes using a Bruker SamplePro Tube robotics system. ^1H NMR spectra were recorded on a Bruker AVIII 500 MHz spectrometer at 298 K, equipped with a 1.7-mm TXI probe, with samples in 1.7-mm SampleJET NMR tubes (Bruker). DMSO and water signals were dampened. A relaxation spin filter was applied at 400 ms. Data were processed using Bruker Topspin 4.0. Lines were broadened with LB = 3.0, and the baseline was corrected between 6.0 and 10.0 ppm.
The data were then analysed using the MNova Screen software. Only peaks between 5.5 and 9.5 ppm were considered. Peaks with a height of < 5% maximum peak height within the region of interest were considered noise, and the minimum matched peak level was set at > 51%. The relative peak intensity change (I) was calculated for all peaks in the 5.5–9.5 ppm region, for each compound, as described previously. The average integral for all peaks between 6.0 and 10.0 ppm was calculated, and the differences between compound-only, compound-plus-protein, and compound-plus-protein-plus-competitor samples were compared. The net recovery was calculated by subtracting the reduction in peak integral of the compound-plus-protein samples from the compound-plus-protein-plus-competitor samples.
For hit validation, relaxation-edited LO-NMR experiments were repeated as described above on single compounds instead of fragment cocktails.

TRF1TRFH [3] = target: T1, TRF1TRFH; assay: LO-NMR R2KD assay; type: binding; settings: for Kd: global KD shared across 1H NMR peaks, single experiment, 95% CI in parentheses, 2 µM TRF1TRFH
Description: Recent work by Liu and colleagues introduced a novel LO-NMR method that can be used to quantitatively determine the dissociation constant (KD) of a ligand for a protein from measured R2 values of ligand nuclei at a range of ligand concentrations.
The R2KD assay was carried out as described by Liu et al.[40]. A Bruker SamplePro liquid handler was used to prepare 10 samples: 8 samples containing an increasing ligand concentration from 50 to 500 µM whilst maintaining a constant TRF1TRFH concentration (2 µM final); and two samples containing ligand only at 200 µM and 400 µM. All ten samples were prepared from stock solutions of ligand, DMSO, protein and buffer alone using the Bruker SamplePro liquid handler prior to transfer to 3-mm NMR tubes.
NMR data were collected at 298 K on a Bruker Avance Neo 600-MHz spectrometer using the Bruker Topspin 4.0 software. T2 relaxation experiments were performed using the standard Bruker CPMG pulse program with Excitation Sculpting incorporated to suppress water signal. The spin-echo period (delay-180°-delay) was set to 1 ms (d20 = 500 µs), and the relaxation delay (d1) was set to 10 s. The sudo-2D experiment contained nine slices with the spin echo period repeated at the following times: 4, 20, 100, 200, 300, 500, 700, 1000, and 2000 ms. T2 relaxation data were processed using the MestReNova 14.1 data analysis module to obtain integrals of individual[1]H-NMR signals, which were used to calculate R2 with the equation I = I0e^(−tR2). GraphPad Prism 9.0.0 was used to fit R2 values of individual compound peaks to obtain an overall (shared) KD value from all peaks of the compound.

[4] = target: T2, TRF1TRFH:TIN2-FAM interaction (Homo sapiens, UniProt P54274); assay: Fluorescence polarisation (FP) competition assay, TIN2-FAM displacement; type: binding; settings: 0.6 µM TRF1TRFH, 25 nM TIN2-FAM; mean of three independent experiments, 95% CI in parentheses
T2 construct: encoding residues 47–268, UniProt identifier P54274-1; His6-MBP (TEV-cleavable) (N, cleaved yes); made in house; host or cells: E. coli BL21-CodonPlus(DE3)-RIL (TRF1TRFH); probe peptide from Pepceuticals
T2 sequence (P54274 47-268): T1 sequence (P54274 47-268)
Description: To complement the biophysical R2KD assay, we developed a fluorescence polarisation (FP) competition assay based on a TIN2TBM peptide labelled with an N-terminal 5(6)-carboxyfluorescein (6-FAM) fluorophore. […] The NMR hit analogues were then titrated against constant concentrations of TRF1TRFH and TIN2-FAM (0.6 µM and 25 nM, respectively).
A TIN2TBM peptide was obtained from Pepceuticals with a 5(6)-carboxyfluorescein (FAM) fluorophore added to the N-terminus for fluorescence studies. To determine the assay window for the FP assay, the TIN2-FAM probe was prepared as a 16-µM stock in aqueous buffer and titrated from 0 to 400 nM against either a constant concentration of TRF1TRFH (0.5 µM in FP buffer) or FP buffer alone (25 mM HEPES-NaOH pH 7.5, 100 mM NaCl, 1 mM TCEP, 0.05% w/v CHAPS). Samples were prepared to a final volume of 10 µL in Packard Proxiplate 384 F plus plates; plates were incubated in darkness at room temperature for 1 h prior to measuring fluorescence intensities and calculating FP values, using a BMG Labtech PHERAstar FSX plate reader with an FP 485 520 520 optic module. A settling time of 0.3 s was used, and the number of flashes was set to 200 for FP measurements. For each plate, a target mP of 35 was set and the gain adjusted on the TIN2-FAM probe control well minus protein.
For the FP competition assay, the unlabelled compounds (from 50-mM DMSO stocks) were first dispensed in duplicate into wells of a Proxiplate 384 F Plus plate using an Echo 550 acoustic liquid handler to give a 13-point concentration range from 0.2 to 500 µM. Wells were then backfilled to 250 nL with DMSO before the addition of 5 µL of 2x TRF1TRFH (0.6 µM final concentration) and 4.75 µL 2x TIN2-FAM (25 nM final concentration). Plates were spun and sealed prior to incubation for 1 h in darkness. FP measurements were then carried out as described above.

SMILES: O=S(=O)(O)c1ccc(OCc2ccccc2)c2ccccc12 [Compound 32]
- Kin. Sol. [1]: 850 µM
- CPMG reduction (TRF1TRFH [2]): 100%
- CPMG recovery (TRF1TRFH [2]): 29%
- increase in affinity relative to ethoxy parent 27 (TRF1TRFH [3]; R2KD assay): five-fold increase in affinity
- Kd (TRF1TRFH [3]): 61 µM
- IC50 [4]: 150 µM

SMILES: CCOc1ccc(C(=O)O)c2ccccc12 [Compound 34, 4-ethoxy-1-naphthoic acid]
- Kin. Sol. [1]: 895 µM
- CPMG reduction (TRF1TRFH [2]): 28%
- CPMG recovery (TRF1TRFH [2]): 20%

SMILES: CCOc1ccc(S(N)(=O)=O)c2ccccc12 [Compound 33, 4-ethoxynaphthalene-1-sulfonamide]
- Kin. Sol. [1]: 50 µM
- CPMG reduction (TRF1TRFH [2]): 79%
- CPMG recovery (TRF1TRFH [2]): 1%

SMILES: CN(C)C(=O)COc1cccc(F)c1 [Compound 6]
- CPMG reduction (TRF1TRFH [2]): 12%

SMILES: O=S(=O)([O-])c1ccc(OCc2cccc(Cl)c2)c2ccccc12.[Na+] [Compound 43]
- Kin. Sol. [1]: 500 µM
- Kd (TRF1TRFH [3]): 140 µM
- IC50 [4]: 180 µM

SMILES: c1ccc(-c2noc(C3CCC3)n2)nc1 [Compound 16]
- CPMG reduction (TRF1TRFH [2]): 22%

SMILES: COc1cccc(COc2ccc(S(=O)(=O)[O-])c3ccccc23)c1.[Na+] [Compound 38]
- Kin. Sol. [1]: 570 µM
- Kd (TRF1TRFH [3]): 53 µM
- IC50 [4]: 150 µM

SMILES: O=S(=O)([O-])c1ccc(OCc2cccc(OC(F)(F)F)c2)c2ccccc12.[Na+] [Compound 42]
- Kin. Sol. [1]: 260 µM
- IC50 [4]: 80 µM

SMILES: O=C(NC1CC1)c1cnn2cccnc12 [Compound 1]
- CPMG reduction (TRF1TRFH [2]): 13%

SMILES: O=S(=O)(O)c1ccc(O)c2ccccc12 [Compound 29, 1-naphthol-4-sulfonic acid]
- Kin. Sol. [1]: 840 µM
- Kd (TRF1TRFH [3]): > 1000 µM

SMILES: CC(C)Oc1ccc(S(=O)(=O)[O-])c2ccccc12.[Na+] [Compound 30]
- Kin. Sol. [1]: 860 µM
- CPMG reduction (TRF1TRFH [2]): 83%
- CPMG recovery (TRF1TRFH [2]): 4%
- Kd (TRF1TRFH [3]): > 1000 µM

SMILES: CCOc1ccc(S(=O)(=O)NCc2ccccc2)c2ccccc12 [Compound 36]
- Kin. Sol. [1]: 0 µM

SMILES: NS(=O)(=O)c1ccccc1OC(F)F [Compound 15]
- CPMG reduction (TRF1TRFH [2]): 0%

SMILES: CCOc1ccc(S(=O)(=O)O)c2ccccc12 [Compound 27]
- Kin. Sol. [1]: 810 µM
- CPMG reduction (TRF1TRFH [2]): 96%
- CPMG recovery (TRF1TRFH [2]): 49%
- Kd (TRF1TRFH [3]): 280 µM

SMILES: COc1ccc(S(=O)(=O)O)c2ccccc12 [Compound 28, 4-methoxy-1-naphthalenesulfonic acid]
- Kin. Sol. [1]: 610 µM
- CPMG reduction (TRF1TRFH [2]): 87%
- CPMG recovery (TRF1TRFH [2]): 22%

SMILES: Cc1cccc(COc2ccc(S(=O)(=O)[O-])c3ccccc23)c1.[Na+] [Compound 37]
- Kin. Sol. [1]: 460 µM
- Kd (TRF1TRFH [3]): 83 µM
- IC50 [4]: 200 µM

SMILES: O=S(=O)([O-])c1ccc(OCc2cccc(Br)c2)c2ccccc12.[Na+] [Compound 44]
- Kin. Sol. [1]: 160 µM
- IC50 [4]: 110 µM

SMILES: COc1ccccc1COc1ccc(S(=O)(=O)[O-])c2ccccc12.[Na+] [Compound 39]
- Kin. Sol. [1]: 320 µM
- Kd (TRF1TRFH [3]): 110 µM
- IC50 [4]: 170 µM

SMILES: CCCOc1cccc(COc2ccc(S(=O)(=O)[O-])c3ccccc23)c1.[Na+] [Compound 41]
- Kin. Sol. [1]: 590 µM
- Kd (TRF1TRFH [3]): 46 µM
- IC50 [4]: 23 µM

SMILES: CCOc1ccc(S(=O)(=O)N(C)C)c2ccccc12 [Compound 35]
- Kin. Sol. [1]: < 50 µM
